These results are taken from publication PMC3167814, “Relationships between Membrane Binding, Affinity and Cell Internalization Efficacy of a Cell-Penetrating Peptide: Penetratin as a Case Study” (PLoS ONE, 2011).

Data set [1] deals with GAG^neg cell membrane fragments. Description: PWR, lipid bilayer composed of cell membrane fragments. It counts as binding, Chinese Hamster. As to conditions: GAG^neg membrane fragments in egg PC planar bilayer; PWR shifts on incremental peptide addition, hyperbolic fit, apparent Kd; repeated 3 times. The text has this: (§1) Homogenized membranes were obtained by osmotic and mechanical disruption of cells. A method to deposit cell membrane fragments on the PWR cell sample was developed as follows. The deposition of a membrane composed of cell membrane fragments into the PWR resonator led to spectral changes, namely large positive spectral shifts for both p- and s-polarizations relative to the buffer spectrum (Figure 2, panels A and B) indicating the immobilization of a significant amount of mass on the sensor surface. It should be noted that the shifts obtained for p-pol were considerably larger than the ones obtained for s-pol (s/p ratio about 0.7).
(§2) Regarding the direction of the PWR spectral shifts, two types of behavior were observed depending on the membrane composition: 1) in the case of GAG^neg cells, penetratin led to a two phase binding process with negative shifts followed by positive shifts (for both polarizations) which equilibrated after certain concentrations; 2) in the case of WT and SA^neg cells, penetratin led to a single binding process with positive shifts for both polarizations (see panels C and D in Figure 2 for penetratin interaction with WT cell membranes and Table 1 for the direction and magnitude of the spectral shifts). […] Penetratin affinity to lipid bilayers and membrane fragments could be calculated using PWR by measuring the resonance minimum position shifts upon incremental addition of peptide to the cell sample [39]. […]
(§3) The kinetics of penetratin interaction with the membrane was determined by following the shift in the resonance minimum position as a function of time for a peptide concentration slightly above the Kd value. […] Rate constants were determined for the second part of the signal (the resonance angle increase) and varied upon membrane composition (Figure 2 and Table 3). […]
(§4) The sensitivity factor (Sf), a measure of the sensitivity of the instrument for the s- pol relative to p-pol ( [drawing 2] ), necessary to determine the mass and anisotropy axes has been determined, for the prism used in those experiments, to be 1.35 [46].

Data set [2] has as its system WT cell membrane fragments. Described as above. In kind it is binding, Chinese Hamster. As to conditions: WT membrane fragments in egg PC planar bilayer; PWR shifts on incremental peptide addition, hyperbolic fit, apparent Kd; repeated 3 times.
Text: as §1, §2, §3, §4

The subject of data set [3] is SA^neg cell membrane fragments. The description is as above. It counts as binding, Chinese Hamster. As to conditions: SA^neg membrane fragments in egg PC planar bilayer; PWR shifts on incremental peptide addition, hyperbolic fit, apparent Kd; repeated 3 times.
Text: as §1, §2, §3, §4

For data set [4], the system named is GAG-deficient CHO-pgsA745 cells (GAG^neg). The protocol: (§5) As already reported, the quantity or concentration of internalized and membrane-bound penetratin could be differentiated and measured by MALDI mass spectrometry, [33], [34]. […] Using the reported protocol, the amount of internalized penetratin was quantified in one million cells that were incubated with 1 or 10 µM penetratin for one hour. After washing steps, the extracellular membrane-bound peptide was degraded by trypsin digestion, [33], [34] so that only the internalized peptide was quantified. […] The extracellular concentration could not be lowered further because of the lack of sensitivity of the MALDI-MS method for accurate measurements of sub-picomole quantities of penetratin.
(§6) Wild type Chinese Hamster Ovary CHO-K1 cells (WT), xylosetransferase- or GAG-deficient CHO-pgsA745 [59] cells (GAG^neg) and sialic acid deficient CHO-lec2 [60] cells (SA^neg) were cultured in Dulbecco's modified Eagle's medium (DMEM) supplemented with 10% fetal calf serum (FCS), penicillin (100,000 IU/L), streptomycin (100,000 IU/L), and amphotericin B (1 mg/L) in a humidified atmosphere containing 5% CO2 at 37°C.
(§7) Cellular uptake was quantified using the method described by Burlina et al.. In this protocol, the studied peptide bears a tag composed of four glycine residues together with a biotin moiety for purification purposes. After one-hour incubation with the peptide and washing, a protease is added (0.05% trypsin in Tris-HCl 100 mM pH 7.5) in order to detach the cells and to degrade the membrane-bound peptide. This avoids overestimating the quantity of internalized peptide due to the presence of peptides attached to the outer leaflet of the membrane. The cells are then lysed (0.3% Triton) and boiled, and the cell lysate is incubated with streptavidin-coated magnetic beads to extract the peptide from the lysate. For membrane-bound peptide quantification, washings but no protease digestion was done and the cells were directly lysed. The peptides are eluted from the streptavidin-coated magnetic beads with a α-cyano-4-hydroxycinnamic acid matrix and spotted on the MALDI plate. Mass spectrometry is not a quantitative method per se, therefore an internal standard is added to the lysis solution. […] This allows the absolute quantification of internalized and membrane-bound peptide. […] The experiments were repeated at least three times independently.

Data set [5] relates to Wild type Chinese Hamster Ovary CHO-K1 cells (WT). The protocol:
as §5, §6, §7

Data set [6] has as its system sialic acid deficient CHO-lec2 cells (SA^neg). The protocol: as §5, §6, §7
A short description of data set [7]: PWR, synthetic lipid model membrane. It counts as binding. The note with it: hyperbolic fit, apparent Kd, repeated 3 times.
Text: To get some insight into the role of the lipid component in the cell surface regarding penetratin interaction, lipid model systems composed of varied lipid composition were used. Both zwitterionic (egg PC), anionic (egg PG -phosphatidylglycerol-and egg PC/DOPG -phosphatidylglycerol/dioleoylphosphatidylglycerol-) and lipids with propensity to form negative membrane curvature (egg PC/DOPE -dioleoylphosphatidylethanolamine-) were chosen in order to understand the role of electrostatic interactions and membrane curvature in the interaction of penetratin with the lipid bilayer. For all the lipid systems, penetratin interaction led to spectral shifts in both the p- and s-polarisation. As in the case of cell membrane fragments studies, presented above, two distinct responses were observed depending on the membrane composition: 1) in the case of egg PC and egg PC/DOPE, a two phase binding process with negative shifts followed by positive shifts (for both polarizations) which equilibrated after certain concentrations were observed; 2) in the case of egg PG, egg PC/POPG (1-palmitoyl-2-oleoyl-sn-glycero-3-phospho-(1′-rac-glycerol)), penetratin led to a single binding process with positive shifts for both polarizations (see Table 1 for the direction and magnitude of the spectral shifts). […] The electrostatic interaction played an important role in penetratin interaction with the membrane, but was not the only relevant factor, the shape of the lipid headgroup and/or the lipid curvature seemed to also play a key role in (this will be further discussed below).
For the membrane interaction where two binding processes were observed, as in the case of egg PC, egg PC/DOPE, the first binding was associated with negative spectral shifts for both p- and s-polarizations, which corresponded mainly to mass changes (90–100%). […] In the case where only one binding event was observed (egg PG and egg PC/DOPG) mass changes again dominated the spectral changes (85 to 91%) (Table 5).
Here, the graphical analysis method was employed.
as §4

[8] abbreviates: 1 µM extracellular biotin-Gly4-tagged penetratin, one million cells, 1 h incubation, washings, trypsin degradation of membrane-bound peptide, MALDI-TOF MS with deuterated internal standard, repeated at least three times.
[9] abbreviates: 1 µM extracellular, 1 h, from internalized amount provided a cell volume of 1 pL.

Regarding “H-RQIKIWFQNRRMKWKK-NH2 [penetratin, Penetratin, positively charged cell-penetrating peptide derived from the third helix of the homeodomain of Antennapedia]”, the Kd in data set [1] is 2000 ± 600 nM; in data set [2], 10 ± 3 nM; in data set [3], 300 ± 40 nM; in data set [7] (Egg PC bilayer), 28000 ± 2000 nM; in data set [7] (Egg PC/DOPE bilayer), 500 ± 10 nM; in data set [7] (Egg PC/DOPG bilayer) it was 1400 ± 30 nM. For the same substance, the Kd in data set [7] (Egg PG bilayer) was found to be 300 ± 20 nM. The internalized peptide quantity result in data set [4] (setting [8]), in data set [5] (setting [8]) and in data set [6] (setting [8]) was “about 0.25 pmole” each time. For the same substance, the intracellular penetratin concentration result in data set [4] (setting [9]), in data set [5] (setting [9]) and in data set [6] (setting [9]) was “about 0.25 µM” in each case.
